In ChEMBL document CHEMBL1201862, “PubChem BioAssay data set” (2004):
The source made the active and inactive calls.

How the values were obtained:
[1] = Luminescence Cell-Based Dose Retest to Confirm Inhibitors of Cancer Stem Cells. [Related pubchem assays (depositor defined):AID2717, AID2721]; assay type: functional; conditions: Homo sapiens
[2] = viability loss of HMLE_sh_eGFP cells – cell-based, luminescence, counter-screen for HMLE_sh_ECad selective toxicity project, dose response (AID 463074); assay type: functional, Homo sapiens;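 note: HMLE human mammary epithelial cells expressing control shRNA against eGFP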
HEK293 [3] = assay: cells; conditions: Homo sapiens
HEK293 [4] = assay: cells; conditions: Homo sapiens; remark: listed apart in the source
[5] = biological target: Dual specificity protein phosphatase 3 (Homo sapiens, UniProt P51452); assay: SAR VHR1 Fluorescent Assay for In Vitro dose response studies Set 3. [Related pubchem assays (depositor defined):AID1654, AID1661, AID1878]; assay type: functional
Dual specificity protein phosphatase 3, sequence (P51452 whole entry): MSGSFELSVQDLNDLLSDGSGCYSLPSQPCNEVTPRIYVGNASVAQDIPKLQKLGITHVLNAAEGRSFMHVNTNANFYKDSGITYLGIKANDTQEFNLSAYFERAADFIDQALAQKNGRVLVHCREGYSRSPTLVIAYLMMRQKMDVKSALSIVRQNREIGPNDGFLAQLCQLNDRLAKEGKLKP

Jurkat = assay: SAR Analysis of small molecule inhibitors of […] specific antigen receptor-induced NF-kB activation in a Jurkat cell line using a luminescence assay - Set 3. [Related pubchem assays (depositor defined):AID435022, AID435025, AID465]; assay type: functional, cell-based; conditions: Homo sapiens
HEK293 [6] = assay: SAR Analysis of small molecule inhibitors of B-cell specific antigen receptor-induced NF-kB activation in a HEK-293T cell line using a luminescence assay - Set 2. [Related pubchem assays (depositor defined):AID435022, AID435025, AID489021]; assay type: functional, cell-based; conditions: Homo sapiens
HEK293 [7] = assay: HEK293T cell viability loss, resazurin readout – resazurin fluorescence, cytotoxicity control for NF-kB activator project, SAR follow-up (AID 493251); assay type: functional, cell-based; conditions: Homo sapiens
Beta Lactamase [8] = biological target: T1, Beta Lactamase (Pseudomonas aeruginosa, UniProt Q932Y6);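 note: confirmatory high-throughput screen measuring VIM-2 metallo-beta-lactamase inhibition by epi-absorbance in dose response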
T1 sequence (Q932Y6 whole entry): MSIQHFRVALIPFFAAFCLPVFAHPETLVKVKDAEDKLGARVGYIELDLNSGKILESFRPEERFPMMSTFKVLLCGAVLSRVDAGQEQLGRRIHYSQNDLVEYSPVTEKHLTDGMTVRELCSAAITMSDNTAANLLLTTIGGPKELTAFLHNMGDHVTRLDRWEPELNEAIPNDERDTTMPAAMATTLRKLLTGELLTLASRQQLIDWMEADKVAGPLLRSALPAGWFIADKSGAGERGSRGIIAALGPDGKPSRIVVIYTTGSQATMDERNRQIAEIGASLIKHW

[9] = tested on: Streptococcus sp. 'group A'; assay: Streptococcus pyogenes SK(-)GAS viability under kanamycin – luminescence, BacTiterGlo, confirmation, counter-screen for streptokinase expression inhibitor project, dose response (AID 1900); assay type: functional, organism-based
Streptokinase A = biological target: T2, Streptokinase A (Streptococcus pyogenes serotype M1, UniProt P10520); assay: viability-normalized secreted streptokinase activity reduction – plasminogen activation absorbance, OD405, dose response (AID 1914); assay type: functional, Streptococcus pyogenes M1 GAS;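 note: secreted streptokinase activity via plasminogen activation per viability signal from cell pellet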
T2 sequence (P10520 whole entry): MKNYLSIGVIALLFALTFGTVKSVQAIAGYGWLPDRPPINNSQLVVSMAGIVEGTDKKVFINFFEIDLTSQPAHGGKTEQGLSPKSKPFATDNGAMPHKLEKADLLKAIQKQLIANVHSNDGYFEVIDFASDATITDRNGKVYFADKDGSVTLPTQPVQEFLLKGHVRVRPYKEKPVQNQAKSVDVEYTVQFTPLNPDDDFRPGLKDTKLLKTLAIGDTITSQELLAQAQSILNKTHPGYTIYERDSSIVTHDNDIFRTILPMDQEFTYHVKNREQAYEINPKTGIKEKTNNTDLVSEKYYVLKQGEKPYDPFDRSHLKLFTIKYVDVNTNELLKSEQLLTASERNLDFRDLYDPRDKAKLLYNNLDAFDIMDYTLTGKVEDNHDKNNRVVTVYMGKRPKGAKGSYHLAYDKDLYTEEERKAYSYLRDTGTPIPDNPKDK

Beta-lactamase [10] = biological target: Beta-lactamase (Pseudomonas aeruginosa, UniProt Q79MP6);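 note: biochemical dose-response test of metallo-beta-lactamase enzyme inhibition, read out by epi-absorbance; purified recombinant IMP-1 metallo-beta-lactamase with nitrocefin as substrate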
Beta-lactamase (Pseudomonas aeruginosa, UniProt Q79MP6), sequence (Q79MP6 whole entry): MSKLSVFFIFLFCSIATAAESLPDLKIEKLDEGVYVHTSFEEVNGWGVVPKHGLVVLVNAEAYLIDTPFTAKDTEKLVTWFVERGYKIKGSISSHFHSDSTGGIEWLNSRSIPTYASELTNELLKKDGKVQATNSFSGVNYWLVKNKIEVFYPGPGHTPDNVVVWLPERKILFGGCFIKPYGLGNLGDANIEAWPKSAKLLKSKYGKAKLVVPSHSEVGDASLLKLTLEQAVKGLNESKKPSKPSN

Beta-lactamase [11] = biological target: Beta-lactamase (Salmonella choleraesuis (strain SC-B67), UniProt Q5J463)
Beta-lactamase (Salmonella choleraesuis (strain SC-B67), UniProt Q5J463), sequence (Q5J463 whole entry): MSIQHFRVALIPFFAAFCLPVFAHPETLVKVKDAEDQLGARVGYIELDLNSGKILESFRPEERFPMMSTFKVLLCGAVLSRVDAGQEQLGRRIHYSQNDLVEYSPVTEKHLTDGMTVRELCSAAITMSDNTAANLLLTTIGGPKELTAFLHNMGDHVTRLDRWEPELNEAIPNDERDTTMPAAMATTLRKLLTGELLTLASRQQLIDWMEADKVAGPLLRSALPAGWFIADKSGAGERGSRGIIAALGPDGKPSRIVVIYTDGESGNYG

Streptococcus = assay: GAS UMAA2166 growth inhibition – luminescence, BacTiterGlo, counter-screen for streptokinase expression inhibitor project, dose response (AID 1915); assay type: functional, organism-based;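 note: potency for reduction of bacterial viability or growth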
HeLa = assay: viability loss in HeLa cells – cell-based, 24 h, cherry-picked samples, cytotoxicity control, dose response (AID 504726); assay type: functional; conditions: Homo sapiens
ORF 73 = ORF 73 (Human herpesvirus 8, UniProt O40947); assay: KSHV LANA DNA-binding disruption – biochemical, fluorescence polarization, cherry-picked samples, dose response (AID 504725); design: species or system Human gammaherpesvirus 8;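 note: fluorescence polarization of a labeled DNA duplex reporting LANA DNA binding; potency is for inhibitors that block LANA binding to the DNA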
ORF 73, sequence (O40947 whole entry): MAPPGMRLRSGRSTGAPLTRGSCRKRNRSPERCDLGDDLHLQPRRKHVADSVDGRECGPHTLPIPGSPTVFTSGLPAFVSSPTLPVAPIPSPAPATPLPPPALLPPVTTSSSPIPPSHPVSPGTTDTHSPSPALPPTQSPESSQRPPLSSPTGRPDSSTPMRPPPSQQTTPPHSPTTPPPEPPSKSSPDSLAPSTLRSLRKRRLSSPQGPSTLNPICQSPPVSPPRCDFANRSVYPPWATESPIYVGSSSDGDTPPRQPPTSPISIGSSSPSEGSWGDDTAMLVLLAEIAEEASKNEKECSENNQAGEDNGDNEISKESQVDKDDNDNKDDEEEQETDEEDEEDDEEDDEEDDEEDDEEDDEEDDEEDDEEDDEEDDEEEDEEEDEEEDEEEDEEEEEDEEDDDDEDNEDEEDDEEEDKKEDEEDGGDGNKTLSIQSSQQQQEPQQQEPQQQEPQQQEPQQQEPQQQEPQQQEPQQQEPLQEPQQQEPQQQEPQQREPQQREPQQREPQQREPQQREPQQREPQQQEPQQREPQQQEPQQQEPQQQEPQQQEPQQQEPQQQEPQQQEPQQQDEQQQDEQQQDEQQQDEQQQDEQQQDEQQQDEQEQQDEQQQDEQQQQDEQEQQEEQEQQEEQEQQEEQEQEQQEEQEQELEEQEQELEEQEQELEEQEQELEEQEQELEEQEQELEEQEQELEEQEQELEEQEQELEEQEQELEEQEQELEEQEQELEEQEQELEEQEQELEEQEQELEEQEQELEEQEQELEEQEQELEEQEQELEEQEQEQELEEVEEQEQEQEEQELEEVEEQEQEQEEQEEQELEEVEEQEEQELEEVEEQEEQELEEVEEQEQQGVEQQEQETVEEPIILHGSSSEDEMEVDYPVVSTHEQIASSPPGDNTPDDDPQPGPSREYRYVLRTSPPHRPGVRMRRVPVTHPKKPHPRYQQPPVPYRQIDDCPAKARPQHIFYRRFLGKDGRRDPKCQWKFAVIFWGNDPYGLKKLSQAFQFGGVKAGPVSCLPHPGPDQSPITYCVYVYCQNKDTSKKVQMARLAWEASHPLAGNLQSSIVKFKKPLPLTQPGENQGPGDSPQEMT

[12] = biological target: T3, Heat shock factor protein 1 (Mus musculus, UniProt P38532); assay: enhancement of HSF1-driven luciferase signal – cell-based, NIH3T3, luminescence, dose retest, confirmation (AID 435004); assay type: functional;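 note: stress induced by proteasome inhibitor MG132 added 30 min after compound; luciferase reporter driven by HSF1 response element in NIH3T3 cells; actives raise luminescence as potentiators of the MG132 stress response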
T3 sequence (P38532 whole entry): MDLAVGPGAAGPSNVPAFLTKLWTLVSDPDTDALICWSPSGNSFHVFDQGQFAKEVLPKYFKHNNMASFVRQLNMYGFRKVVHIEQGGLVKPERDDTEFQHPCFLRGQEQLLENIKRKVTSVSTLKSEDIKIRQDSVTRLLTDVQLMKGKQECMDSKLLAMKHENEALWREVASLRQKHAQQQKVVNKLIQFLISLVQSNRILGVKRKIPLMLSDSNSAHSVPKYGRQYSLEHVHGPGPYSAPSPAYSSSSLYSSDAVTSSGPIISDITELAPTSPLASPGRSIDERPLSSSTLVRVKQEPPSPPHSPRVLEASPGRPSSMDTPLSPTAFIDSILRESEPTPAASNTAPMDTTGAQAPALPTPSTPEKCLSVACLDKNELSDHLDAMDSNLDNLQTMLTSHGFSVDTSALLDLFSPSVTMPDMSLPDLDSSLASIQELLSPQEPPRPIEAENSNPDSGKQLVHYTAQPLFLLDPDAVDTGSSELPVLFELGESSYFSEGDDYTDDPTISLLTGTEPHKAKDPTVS

CHO = CHO cell viability loss, potency – luminescence, cytotoxicity control for TLR9-MyD88 binding inhibitor project, dose response (AID 588339); assay type: functional, cell-based, hamster; conditions: Cricetulus griseus;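 note: CHO cells stably coexpressing TLR9 and MyD88 fusions from primary screen; compound exposure lasted 48 hours before viability readout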
[13] = biological target: UDP-galactopyranose mutase (Mycobacterium tuberculosis, UniProt P9WIQ1); assay: Inhibitors of Mycobacterium tuberculosis UDP-galactopyranose mutase (UGM) enzyme Measured in Biochemical System Using Plate Reader - 2105-02_Inhibitor_Dose_CherryPick_Activity. [Related pubchem assays (depositor defined):AID504439]
UDP-galactopyranose mutase, sequence (P9WIQ1 whole entry): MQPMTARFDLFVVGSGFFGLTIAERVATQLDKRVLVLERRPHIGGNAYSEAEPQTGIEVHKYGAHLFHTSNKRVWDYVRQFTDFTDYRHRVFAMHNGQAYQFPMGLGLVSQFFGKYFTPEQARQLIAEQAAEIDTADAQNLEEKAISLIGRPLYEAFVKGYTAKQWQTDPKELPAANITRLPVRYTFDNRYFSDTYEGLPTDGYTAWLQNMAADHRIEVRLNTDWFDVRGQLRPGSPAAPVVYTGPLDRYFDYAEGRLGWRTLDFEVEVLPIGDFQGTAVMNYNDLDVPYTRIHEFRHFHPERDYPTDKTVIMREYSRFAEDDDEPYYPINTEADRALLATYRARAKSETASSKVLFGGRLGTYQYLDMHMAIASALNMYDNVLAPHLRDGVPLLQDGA

Insulin-degrading enzyme [14] = biological target: T4, Insulin-degrading enzyme (Homo sapiens, UniProt P14735); assay: recombinant IDE activation, cell-free – biochemical, fluorescence polarization, counter-screen for IDE activator project, dose response (AID 588681)
T4 sequence (P14735 whole entry): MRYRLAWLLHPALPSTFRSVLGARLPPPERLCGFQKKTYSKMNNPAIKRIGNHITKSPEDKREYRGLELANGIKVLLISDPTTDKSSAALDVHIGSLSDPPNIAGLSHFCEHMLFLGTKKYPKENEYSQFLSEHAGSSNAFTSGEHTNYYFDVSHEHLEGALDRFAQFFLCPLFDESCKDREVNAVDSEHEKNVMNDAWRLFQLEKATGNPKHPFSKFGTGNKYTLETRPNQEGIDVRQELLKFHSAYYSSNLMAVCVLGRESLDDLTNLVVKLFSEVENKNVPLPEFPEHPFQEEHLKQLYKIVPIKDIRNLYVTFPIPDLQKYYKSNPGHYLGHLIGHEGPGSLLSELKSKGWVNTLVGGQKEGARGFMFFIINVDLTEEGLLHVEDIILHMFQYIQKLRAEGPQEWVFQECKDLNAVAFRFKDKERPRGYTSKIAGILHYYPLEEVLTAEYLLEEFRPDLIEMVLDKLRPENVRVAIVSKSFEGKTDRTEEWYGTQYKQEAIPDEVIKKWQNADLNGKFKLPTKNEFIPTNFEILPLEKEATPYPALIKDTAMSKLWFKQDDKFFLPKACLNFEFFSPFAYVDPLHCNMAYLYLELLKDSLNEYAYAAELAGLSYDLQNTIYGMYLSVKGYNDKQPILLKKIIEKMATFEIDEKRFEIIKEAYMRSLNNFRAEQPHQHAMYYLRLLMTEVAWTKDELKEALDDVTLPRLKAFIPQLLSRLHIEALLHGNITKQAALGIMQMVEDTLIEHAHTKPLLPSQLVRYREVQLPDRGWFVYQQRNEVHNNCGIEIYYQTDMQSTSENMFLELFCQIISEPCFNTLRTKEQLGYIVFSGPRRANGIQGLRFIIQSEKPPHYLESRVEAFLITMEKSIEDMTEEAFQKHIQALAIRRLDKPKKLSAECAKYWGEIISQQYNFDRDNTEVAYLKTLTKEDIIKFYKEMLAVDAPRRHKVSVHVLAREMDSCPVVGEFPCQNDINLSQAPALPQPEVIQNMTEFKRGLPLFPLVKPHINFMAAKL

Keap1/Nrf2 = Keap1/Nrf2 (Homo sapiens, UniProt Q14145); assay: disruptors of Keap1 binding to Nrf2 peptide – biochemical, fluorescence polarization, cherry-picked samples, dose response (AID 588683)
Keap1/Nrf2, sequence (Q16236 whole entry): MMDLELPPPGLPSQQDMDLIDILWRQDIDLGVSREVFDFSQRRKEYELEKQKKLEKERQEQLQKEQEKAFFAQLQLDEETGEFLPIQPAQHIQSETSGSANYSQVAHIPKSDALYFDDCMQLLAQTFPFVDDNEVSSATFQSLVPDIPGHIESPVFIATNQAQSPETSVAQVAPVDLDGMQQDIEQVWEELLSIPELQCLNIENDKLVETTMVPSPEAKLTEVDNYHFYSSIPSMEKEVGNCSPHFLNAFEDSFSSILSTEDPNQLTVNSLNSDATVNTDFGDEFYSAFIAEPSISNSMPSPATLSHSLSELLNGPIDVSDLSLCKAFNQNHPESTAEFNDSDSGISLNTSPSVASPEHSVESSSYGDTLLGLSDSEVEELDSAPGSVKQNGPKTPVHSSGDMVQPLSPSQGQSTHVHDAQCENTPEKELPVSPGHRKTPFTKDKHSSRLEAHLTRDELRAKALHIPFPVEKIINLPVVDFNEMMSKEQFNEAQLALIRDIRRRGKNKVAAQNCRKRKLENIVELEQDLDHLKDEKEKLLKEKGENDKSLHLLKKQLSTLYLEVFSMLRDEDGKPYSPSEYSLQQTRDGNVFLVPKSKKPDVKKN
Keap1/Nrf2, sequence (Q14145 whole entry): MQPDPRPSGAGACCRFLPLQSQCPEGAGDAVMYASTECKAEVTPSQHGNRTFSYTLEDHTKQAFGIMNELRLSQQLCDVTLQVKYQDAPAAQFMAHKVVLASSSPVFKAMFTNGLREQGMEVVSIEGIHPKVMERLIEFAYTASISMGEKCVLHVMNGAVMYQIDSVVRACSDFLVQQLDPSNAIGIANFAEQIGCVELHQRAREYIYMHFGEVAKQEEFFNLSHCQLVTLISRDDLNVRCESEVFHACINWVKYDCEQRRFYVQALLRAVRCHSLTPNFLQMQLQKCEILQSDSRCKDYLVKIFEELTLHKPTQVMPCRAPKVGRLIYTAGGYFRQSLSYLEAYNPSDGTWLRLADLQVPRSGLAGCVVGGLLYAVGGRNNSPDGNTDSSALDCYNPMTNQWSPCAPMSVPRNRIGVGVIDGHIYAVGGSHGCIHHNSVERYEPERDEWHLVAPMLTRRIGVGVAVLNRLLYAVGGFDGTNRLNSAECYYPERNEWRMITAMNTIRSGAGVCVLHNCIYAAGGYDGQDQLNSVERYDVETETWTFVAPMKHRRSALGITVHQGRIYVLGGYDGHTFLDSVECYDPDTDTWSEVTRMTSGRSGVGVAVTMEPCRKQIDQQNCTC

Beta Lactamase [15] = biological target: T1, Beta Lactamase; assay: BLA reporter interference, concentration series – BLA reporter cells, FRET fluorescence, artefact control for TLR9-MyD88 binding inhibitor project, dose response (AID 588341); assay type: cell-based;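 note: cell based assay in CHO-K1 cells stably expressing beta-lactamase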
Insulin-degrading enzyme [16] = biological target: T4, Insulin-degrading enzyme; assay: cellular IDE activation of Abeta substrate cleavage – fluorescence polarization, HEK cells, dose response (AID 588439); assay type: functional, cell-based
HEK293 [17] = assay: membrane integrity loss in HEK cells – cell-based, fluorescence, cytotoxicity control for IDE activator project, dose response (AID 588440); assay type: functional; conditions: Homo sapiens;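 note: cytotoxicity by LDH release measuring loss of membrane integrity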
HEK293 [18] = assay: optical interference in Abeta FP readout, dose response, artefact control for IDE activator project, biochemical, fluorescence polarization (AID 588442); assay type: functional, cell-based; conditions: Homo sapiens

O=C(CSc1ccc(F)cc1)N1CCC(c2nc3ccccc3s2)CC1
active: AC50 [1] 40.5 µM | AC50 [2] 26.9 µM

COc1ccc(N2C(=O)NC(NC(=O)C(C)(C)C)(C(F)(F)F)C2=O)cc1 (stereo not given)
inactive: EC50 (HEK293 [3]) > 59.7 µM | EC50 (HEK293 [4]) > 59.7 µM

Cc1ccc(C(=O)NC(=S)Nc2ccc(Cl)c(-c3nc4ccccc4s3)c2)cc1
inactive: IC50 [5] > 66 µM

CC(C)(C)c1ccc(-c2noc(CCC(=O)NC3CCCC3)n2)cc1
inactive: IC50 (HEK293 [7]) > 80 µM
active: IC50 (Jurkat) 0.48 µM | IC50 (HEK293 [6]) 0.78 µM

CCCC/N=C1\C(=O)N(C)c2cccc3c(O)c4ccccc4c1c23
inactive: IC50 (Beta Lactamase [8]) 11.9 µM | IC50 (Beta-lactamase [10]) 14.3 µM | AC50 (HeLa) > 350 µM | IC50 (CHO) 20.1 µM | EC50 (Insulin-degrading enzyme [14]) > 54.7 µM | EC50 (Insulin-degrading enzyme [16]) > 54.7 µM | IC50 (HEK293 [17]) > 89.2 µM | EC50 (HEK293 [18]) > 54.7 µM
active: EC50 [9] 6.81 µM | EC50 (Streptokinase A) 21.4 µM | IC50 (Beta-lactamase [11]) 4.28 µM | EC50 (Streptococcus) 35.4 µM | AC50 (ORF 73) 4.99 µM | EC50 [12] 56.5 µM | AC50 [13] 1.04 µM | AC50 (Keap1/Nrf2) 1.13 µM | IC50 (Beta Lactamase [15]) 9.06 µM
